Reference: patent US20230391772A1, “METHODS AND COMPOSITIONS FOR TARGETED PROTEIN DEGRADATION” (Ranok Therapeutics (Hangzhou) Co. Ltd., priority 2020, published 2023)

Tests used:
KRAS(G12C) [1] = target: T1, KRAS(G12C) (Homo sapiens, UniProt P01116, G12C); test: KRAS(G12C) Western blot protein degradation assay in LU65A cells; format: cell-based; set-up: LU65A human lung cancer cell line, which expresses KRAS(G12C); host or cells: LU65A; details: 6 hr
Method in brief: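 Cells treated with compound at various concentrations at 37 °C for 48 hr (MIA PaCa-2) or 6 hr (LU65A), then lysed in RIPA. Protein-normalized lysates immunoblotted for KRAS with β-actin, fluorescence quantified; DC50 is the concentration giving 50% of maximal KRAS degradation.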

KRAS(G12C) [2] = target: T1, KRAS(G12C); test: KRAS(G12C)/SOS1 homogeneous time-resolved fluorescence (HTRF) assay; set-up: purchased Cisbio 63ADK000CB16PEG; details: absence of GTP, 4° C. for 3 hr, read-out: KRAS (G12C) binding
Method in brief: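 HTRF kit measuring compound-induced block of KRAS(G12C)-SOS1 interaction without GTP. Compounds tested as 3-fold serial dilutions down to 1.02 nM, incubated with reaction components 3 h at 4 °C in sealed plates before fluorescence read.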

[3] = test system: MIA PaCa-2 human pancreatic carcinoma; test: MIA PaCa-2 CCK-8 proliferation assay; format: cell-based; details: Homo sapiens, MIA PaCa-2, 72 h, MIA PaCa-2 cells
Method in brief: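 CCK-8 absorbance readout; % inhibition = 100 − (compound − blank)/(DMSO − blank) × 100, blank = medium + DMSO, no cells. Dose range 20 μM down to 1.02 nM, 3-fold steps. KRAS(G12C) copy number: MIA PaCa-2 2; NCI-H358 1; NCI-H23 1.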

T1 sequence (P01116 1-188 isoform P01116-2 G12C): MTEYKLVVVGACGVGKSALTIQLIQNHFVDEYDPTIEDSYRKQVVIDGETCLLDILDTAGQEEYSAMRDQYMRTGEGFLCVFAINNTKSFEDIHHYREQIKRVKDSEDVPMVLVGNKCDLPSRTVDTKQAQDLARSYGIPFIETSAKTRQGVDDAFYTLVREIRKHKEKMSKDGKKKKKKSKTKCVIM

SMILES | DC50 (KRAS(G12C) [1]) [nM] | IC50 (KRAS(G12C) [2]) [nM] | EC50 [3] [nM]
C=CC(=O)N1CCN(c2nc(OCC3(CN4CCN(Cc5ccc(-n6c(O)nnc6-c6cc(C(C)C)c(O)cc6O)cc5)CC4)CC3)nc3c2CCN(c2cccc4cccc(Cl)c24)C3)C[C@@H]1CC#N [Compound 284, 2-[(2S)-4-[7-(8-chloronaphthalen-1-yl)-2-[(1-{[4-({4-[3-(2,4-dihydroxy-5-isopropylphenyl)-5-hydroxy-1,2,4-triazol-4-yl]phenyl}methyl)piperazin-1-yl]methyl}cyclopropyl)methoxy]-5H,6H,8H-pyrido[3,4-d]pyrimidin-4-yl]-1-(prop-2-enoyl)piperazin-2-yl]acetonitrile] | 100 to 1000 | < 100 | 100 to 1000
C=CC(=O)N1CCN(c2nc(OC[C@@H]3C[C@H](N4CCN(CC5CCN(Cc6ccc(-n7c(C(=O)NCC)nnc7-c7cc(C(C)C)c(O)cc7O)cc6)CC5)CC4)CN3C)nc3c2CCN(c2cccc4cccc(Cl)c24)C3)C[C@@H]1CC#N [Compound 276, 4-(4-{[4-({4-[(3S,5S)-5-({[7-(8-chloronaphthalen-1-yl)-4-[(3S)-3-(cyanomethyl)-4-(prop-2-enoyl)piperazin-1-yl]-5H,6H,8H-pyrido[3,4-d]pyrimidin-2-yl]oxy}methyl)-1-methylpyrrolidin-3-yl]piperazin-1-yl}methyl)piperidin-1-yl]methyl}phenyl)-5-(2,4-dihydroxy-5-isopropylphenyl)-N-ethyl-1,2,4-triazole-3-carboxamide] | > 1000 | < 100 | < 100
C=CC(=O)N1CCN(c2nc(OC[C@@H]3CC[C@H](CN4CCN(Cc5ccc(-n6c(O)nnc6-c6cc(C(C)C)c(O)cc6O)cc5)CC4)N3C)nc3c2CCN(c2cccc4ccc(F)c(Cl)c24)C3)C[C@@H]1CC#N [Compound 268, 2-[(2S)-4-[7-(8-chloro-7-fluoronaphthalen-1-yl)-2-{[(2S,5R)-5-{[4-({4-[3-(2,4-dihydroxy-5-isopropylphenyl)-5-hydroxy-1,2,4-triazol-4-yl]phenyl}methyl)piperazin-1-yl]methyl}-1-methylpyrrolidin-2-yl]methoxy}-5H,6H,8H-pyrido[3,4-d]pyramidin-4-yl]-1-(prop-2-enoyl)piperazin-2-yl]acetonitrile] | > 1000 | < 100 | 100 to 1000
C=CC(=O)N1CCN(c2nc(OC[C@@H]3CC[C@H](CN4CCN(C(=O)C5CCN(Cc6ccc(-n7c(O)nnc7-c7cc(CC)c(O)cc7O)cc6)CC5)CC4)N3C)nc3c2CCN(c2cccc4cccc(Cl)c24)C3)C[C@@H]1CC#N [Compound 245, 2-[(2S)-4-[7-(8-chloronaphthalen-1-yl)-2-{[(2S,5R)-5-({4-[1-({4-[3-(5-ethyl-2,4-di hydroxyphenyl)-5-hydroxy-1,2,4-triazol-4-yl]phenyl}methyl)piperidine-4-carbonyl]piperazin-1-yl}methyl)-1-methylpyrrolidin-2-yl]methoxy}-5H,6H,8H-pyrido [3,4-d]pyrimidin-4-yl]-1-(prop-2-enoyl)piperazin-2-yl]acetonitrile] | > 1000 | < 100 | 100 to 1000
C=CC(=O)N1CCN(c2nc(OC[C@@H]3C[C@H](N4CCN(Cc5ccc(-n6c(O)nnc6-c6cc(C(C)C)c(O)cc6O)cc5)CC4)CN3C)nc3c2CCN(c2cccc4ccc(F)c(Cl)c24)C3)C[C@@H]1CC#N [Compound 277, 2-[(2S)-4-[7-(8-chloro-7-fluoronaphthalen-1-yl)-2-{[(2S,4S)-4-[4-({4-[3-(2,4-dihydroxy-5-isopropylphenyl)-5-hydroxy-1,2,4-triazol-4-yl]phenyl}methyl)piperazin-1-yl]-1-methylpyrrolidin-2-yl]methoxy}-5H,6H,8H-pyrido[3,4-d]pyrimidin-4-yl]-1-(prop-2-enoyl)piperazin-2-yl]acetonitrile] | > 1000 | < 100 | 100 to 1000
